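In this assay, cells in 96-well plates receive the compound at five concentrations for 48 hours. Endpoints are linearly interpolated between the surrounding concentrations. GI50 = concentration required for 50% inhibition of growth.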 Active and inactive are the calls of the source. No stated cut-off is given here; in the data, active = GI50 up to about 1.1 µM and inactive = higher.
Assays:
Experiment in all cases: NCI tumour cell line growth inhibition, 48 h
SF-295 = system: SF-295
786-0 = system: 786-0
NCI-H226 = system: NCI-H226
UO-31 = system: UO-31
OVCAR-8 = system: OVCAR-8
HT-29 = system: HT-29
NCI-H23 = system: NCI-H23
M14 = system: M14
A549 = system: A549
SNB-75 = system: SNB-75
NCI-H522 = system: NCI-H522
A498 = system: A498
SF-268 = system: SF-268
MOLT-4 = system: MOLT-4
ACHN = system: ACHN
SW-620 = system: SW-620
SF-539 = system: SF-539
HOP-92 = system: HOP-92

Measured: GI50

O=C(NNC(=O)c1cc(/C=C/c2cccc([N+](=O)[O-])c2)nc(S)n1)Nc1ccc(Cl)cc1
inactive: SF-295 > 100 µM | 786-0 47.8 µM | NCI-H226 > 100 µM | UO-31 91.2 µM | OVCAR-8 68.4 µM | HT-29 41.8 µM | NCI-H23 77.4 µM | M14 93.8 µM | A549 70 µM | SNB-75 > 100 µM | NCI-H522 22.7 µM | A498 > 100 µM | SF-268 > 100 µM | MOLT-4 23.6 µM | ACHN > 100 µM

COc1ccc2c(c1)[n+]([O-])c(-c1ccccc1)c(N)[n+]2[O-]
inactive: SF-295 67.1 µM | 786-0 63.2 µM | SW-620 39.3 µM | NCI-H226 > 100 µM | UO-31 63.1 µM | OVCAR-8 37.2 µM | SF-539 32.4 µM | HT-29 52.7 µM | NCI-H23 23.9 µM | M14 29.4 µM | A549 37.1 µM | SNB-75 > 100 µM | NCI-H522 17.1 µM | A498 69.3 µM | SF-268 30.5 µM | MOLT-4 71.3 µM | ACHN 52.6 µM

CN(C(=N)c1ccccc1)c1ccccc1
inactive: SF-295 > 100 µM | 786-0 > 100 µM | SW-620 > 100 µM | NCI-H226 > 100 µM | UO-31 > 100 µM | OVCAR-8 > 100 µM | SF-539 > 100 µM | HT-29 > 100 µM | NCI-H23 > 100 µM | HOP-92 51.5 µM | M14 > 100 µM | A549 > 100 µM | SNB-75 47.6 µM | A498 > 10 µM | MOLT-4 > 100 µM

CC(C)C(N)=O [ISOBUTYRAMIDE]
inactive: SF-295 > 5000 µM | 786-0 > 5000 µM | SW-620 > 5000 µM | NCI-H226 > 5000 µM | UO-31 > 5000 µM | OVCAR-8 > 5000 µM | SF-539 > 5000 µM | HT-29 > 5000 µM | NCI-H23 > 5000 µM | HOP-92 > 5000 µM | M14 > 5000 µM | A549 > 5000 µM | SNB-75 > 5000 µM | NCI-H522 > 5000 µM | SF-268 > 5000 µM | MOLT-4 > 5000 µM | ACHN > 5000 µM

O=C(O)CCSC(=O)Nc1ccccc1Cl
inactive: SF-295 > 100 µM | 786-0 > 100 µM | SW-620 > 100 µM | NCI-H226 > 100 µM | UO-31 > 100 µM | OVCAR-8 > 100 µM | SF-539 > 100 µM | HT-29 > 100 µM | NCI-H23 > 100 µM | HOP-92 > 100 µM | M14 > 100 µM | A549 > 100 µM | SNB-75 > 100 µM | A498 60 µM | SF-268 > 100 µM | MOLT-4 > 100 µM | ACHN > 100 µM

CC(=O)c1c(O)ccc2c1CC(CC=O)O2 (stereo not given)
inactive: SF-295 > 100 µM | 786-0 69.7 µM | SW-620 43.9 µM | NCI-H226 > 100 µM | UO-31 63.2 µM | OVCAR-8 27.6 µM | SF-539 50 µM | HT-29 37.2 µM | NCI-H23 53.6 µM | HOP-92 34.3 µM | M14 47.5 µM | A549 > 100 µM | SNB-75 42.1 µM | NCI-H522 60.5 µM | SF-268 88.5 µM | MOLT-4 > 100 µM | ACHN > 100 µM

CCOC(=O)C(C(=O)OCC)=C1N[C@H](C(=O)OCC)CS1
inactive: SF-295 > 100 µM | 786-0 > 100 µM | SW-620 > 100 µM | NCI-H226 80.5 µM | UO-31 > 100 µM | OVCAR-8 > 100 µM | SF-539 > 100 µM | HT-29 > 100 µM | NCI-H23 > 100 µM | M14 > 100 µM | A549 > 100 µM | NCI-H522 > 100 µM | SF-268 > 100 µM | MOLT-4 > 100 µM | ACHN > 100 µM

Cn1c(=O)c2c3oc(=O)cc(O)c3c(=O)n3c4ccccc4n(c1=O)c23
inactive: SF-295 > 100 µM | 786-0 33.3 µM | SW-620 40.5 µM | UO-31 28.8 µM | OVCAR-8 40.9 µM | SF-539 47.6 µM | HT-29 39.7 µM | NCI-H23 35.6 µM | HOP-92 33.2 µM | M14 43.3 µM | A549 45.7 µM | SNB-75 32.2 µM | A498 23.9 µM | SF-268 47.6 µM | MOLT-4 33.3 µM | ACHN 38 µM

COC(=O)CC(CC(=O)C(=O)OC)C(=O)OC (stereo not given)
inactive: SF-295 > 100 µM | 786-0 > 100 µM | SW-620 > 100 µM | NCI-H226 > 100 µM | UO-31 > 100 µM | OVCAR-8 > 100 µM | SF-539 > 100 µM | HT-29 > 100 µM | NCI-H23 > 100 µM | HOP-92 > 100 µM | M14 > 100 µM | A549 > 100 µM | SNB-75 > 100 µM | A498 > 100 µM | MOLT-4 > 100 µM | ACHN > 100 µM

COC(=O)C1=CC2OC13CC1CCC3(C2=O)C1(C)C (stereo not given)
inactive: SF-295 19.6 µM | 786-0 12.2 µM | SW-620 4.05 µM | NCI-H226 17.1 µM | UO-31 5.89 µM | OVCAR-8 8.04 µM | SF-539 14.2 µM | HT-29 13.2 µM | NCI-H23 16 µM | M14 5.28 µM | A549 31.4 µM | SNB-75 7.01 µM | NCI-H522 2.34 µM | A498 19.1 µM | SF-268 10 µM | MOLT-4 14 µM | ACHN 8.83 µM

c1ccc(CCCC2Sc3cccc4cccc(c34)S2)cc1
inactive: SF-295 > 100 µM | 786-0 > 100 µM | SW-620 > 100 µM | NCI-H226 88.3 µM | UO-31 > 100 µM | OVCAR-8 > 100 µM | SF-539 > 100 µM | HT-29 78.9 µM | NCI-H23 > 100 µM | HOP-92 > 100 µM | M14 > 100 µM | A549 > 100 µM | SNB-75 > 100 µM | NCI-H522 92.7 µM | SF-268 > 100 µM | ACHN > 100 µM

Nc1ccc2ncc(Nc3ccc(Cl)c(Cl)c3)nc2c1
inactive: SF-295 20 µM | 786-0 39.6 µM | SW-620 35.2 µM | NCI-H226 20.8 µM | UO-31 19.7 µM | OVCAR-8 25.5 µM | SF-539 17.3 µM | HT-29 14.8 µM | NCI-H23 18.7 µM | HOP-92 13.6 µM | M14 19.4 µM | A549 26.3 µM | SNB-75 16 µM | NCI-H522 17.9 µM | SF-268 39.7 µM | MOLT-4 17.7 µM | ACHN 16.9 µM
